# Earlier results as cited in patent US20230404078A1, “HERBICIDAL COMBINATIONS” (priority 2020, published 2023).
# How the values were obtained:
# [1] = tested on: broadleaf weeds; details: Clethodim itself
# [2] = tested on: wheat; details: in vivo
SMILES,efficacy against broadleaf weeds [1],injury in the wheat crop [2],visual injury in wheat [2]
"CCSC(C)CC1CC(=O)C(/C(CC)=N/OC/C=C/Cl)=C(O)C1 (stereo not drawn) [Clethodim, 2-[1-[[[(2£)-3-chloro-2-propen-l-yl]oxy]imino]propyl]-5-[2-(ethylthio)propyl]-3-hydroxy-2-cyclohexen-1-one]",no efficacy,,
COc1cc(OC)n2nc(NS(=O)(=O)c3c(C(F)(F)F)ccnc3OC)nc2n1 [Pyroxsulam],,greater than 10%,up to 10%
